Experimental data: patent US9102648B1, “Bioavailable diacylhydrazine ligands for modulating the expression of exogenous genes via an ecdysone receptor complex” (Intrexon Corporation, priority 2003, dated 2015)
Where two headings read alike, the source gives them in different places.

Key:
[1] = target: T1, Bombyx mori EcR (VP16 fusion, CVBE switch construct) (Bombyx mori, UniProt P49881); assay: Z3 Assay (HEK-293 cells with CVBE and 6XEcRE LacZ, β-galactosidase reporter); conditions: for fold induction at 3.3 µM: HEK293, read-out: Fold Induction, Z3 Assay, 3.3 uM; for fold induction at 33 µM: HEK293, read-out: Fold Induction, Z3 Assay, 33 uM; for Z3 assay Rel Max FI: maximum fold induction at any concentration relative to that of GS-E ligand; for Fold Induction, Z3 Assay, 3.3 uM: 3.3 uM ligand; for Fold Induction, Z3 Assay, 3.3 uM / Fold Induction, Z3 Assay, 33 uM: ligand treated / DMSO treated cells; for Fold Induction, Z3 Assay, 33 uM: 33 uM ligand
T1 sequence (P49881 86-606): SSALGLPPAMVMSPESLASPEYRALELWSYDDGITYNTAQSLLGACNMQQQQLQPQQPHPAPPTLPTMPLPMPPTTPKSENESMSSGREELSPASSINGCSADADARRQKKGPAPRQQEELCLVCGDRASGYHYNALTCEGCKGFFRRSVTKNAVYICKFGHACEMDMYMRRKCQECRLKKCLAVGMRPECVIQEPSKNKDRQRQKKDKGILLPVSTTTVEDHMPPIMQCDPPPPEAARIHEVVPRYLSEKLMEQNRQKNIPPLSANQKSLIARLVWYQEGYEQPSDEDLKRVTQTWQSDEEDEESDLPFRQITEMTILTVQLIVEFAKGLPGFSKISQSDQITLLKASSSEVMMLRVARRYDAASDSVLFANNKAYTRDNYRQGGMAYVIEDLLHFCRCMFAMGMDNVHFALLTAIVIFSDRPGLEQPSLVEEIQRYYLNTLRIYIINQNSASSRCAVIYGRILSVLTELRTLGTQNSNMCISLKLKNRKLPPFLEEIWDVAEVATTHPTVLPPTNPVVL
T1 sequence (P19793 1-462 partner): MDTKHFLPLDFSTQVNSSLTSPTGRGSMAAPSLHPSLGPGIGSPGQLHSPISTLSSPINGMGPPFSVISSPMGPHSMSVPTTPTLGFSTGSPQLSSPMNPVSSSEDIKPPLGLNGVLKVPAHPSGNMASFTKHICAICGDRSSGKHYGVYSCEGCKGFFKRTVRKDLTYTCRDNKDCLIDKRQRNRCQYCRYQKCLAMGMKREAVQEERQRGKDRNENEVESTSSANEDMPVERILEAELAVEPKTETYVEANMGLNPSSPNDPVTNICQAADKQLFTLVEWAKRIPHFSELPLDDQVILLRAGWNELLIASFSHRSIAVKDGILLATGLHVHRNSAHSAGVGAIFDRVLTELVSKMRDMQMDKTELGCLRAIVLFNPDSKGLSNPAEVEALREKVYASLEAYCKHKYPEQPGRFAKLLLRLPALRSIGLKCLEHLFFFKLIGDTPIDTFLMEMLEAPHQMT

[2] = target: GAL4 DBD-CfEcR(DEF)/VP16AD-MmRXRE (Choristoneura fumiferana, UniProt O77240); assay: 13B3 Assay (CHO stable cell line, luciferase reporter); conditions: for 13B3 assay Rel Max FI: maximum fold induction at any concentration relative to that of GS-E ligand, CHO 13B3 cells; for fold induction at 3.3 µM: read-out: Fold Induction, 13B3 Assay, 3.3 uM; for fold induction at 33 µM: read-out: Fold Induction, 13B3 Assay, 33 uM; for Fold Induction, 13B3 Assay, 3.3 uM: 3.3 uM ligand; for Fold Induction, 13B3 Assay, 3.3 uM / Fold Induction, 13B3 Assay, 33 uM: RLU ligand treated / RLU DMSO treated cells; for Fold Induction, 13B3 Assay, 33 uM: 33 uM ligand
Outline: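 CHO 13B3 clone stably expressing GAL4 DBD–CfEcR(DEF) and VP16AD–MmRXR(DE) with GAL4 RE–luciferase reporter; cells plated 24 h at 37 °C, then treated with ligands (DMSO stocks diluted 300-fold), 8 concentrations 33–0.01 μM.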

[3] = read-out: Z3 assay EC50, HEK-293 Z3 cells, β-galactosidase reporter, average of two wells
[4] = read-out: 13B3 EC50, CHO 13B3 stable cell line, luciferase reporter, 48 h, average of two wells

| Structure (SMILES) | EC50 [1] [µM] | fold induction at 3.3 µM [1] | fold induction at 33 µM [1] | Z3 assay Rel Max FI ([1]; HEK-293 Z3 cells) | EC50 [2] [µM] | 13B3 assay Rel Max FI [2] | fold induction at 3.3 µM [2] | fold induction at 33 µM [2] | Fold Induction, Z3 Assay, 3.3 uM ([1]; average of two wells) | Fold Induction, Z3 Assay, 33 uM ([1]; average of two wells) | EC50 [1, 3] [µM] | Fold Induction, 13B3 Assay, 3.3 uM ([2]; average of two wells) | Fold Induction, 13B3 Assay, 33 uM ([2]; average of two wells) | EC50 [2, 4] [µM] |
| --- | --- | --- | --- | --- | --- | --- | --- | --- | --- | --- | --- | --- | --- | --- |
| COc1cccc(C(=O)NN(C(=O)c2cc(C)cc(C)c2)C(C)(C)C)c1C [RG-102398] | 0.095 | 535 | 1970 | 1.027 | 0.627 | 0.838 | 8120 | 795 | – | – | – | – | – | – |
| CCC(N(NC(=O)c1cccc(C)c1C)C(=O)c1cc(C)cc(C)c1)C(C)(C)C (centres unmarked) [RG-103309, 3,5-dimethyl-benzoic acid N′-(2,3-dimethyl-benzoyl)-N-(1-ethyl-2,2-dimethyl-propyl)-hydrazide] | 0.078 | 1160 | 591 | 0.950 | 0.146 | 1.486 | 924 | 95 | – | – | – | – | – | – |
| COc1cc(C(=O)N(NC(=O)c2ccc3c(c2C)OCCO3)C(C)(C)C)cc(OC)c1O [RG-115009, 4-Hydroxy-3,5-dimethoxy-benzoic acid N-tert-butyl-N′-(5-methyl-2,3-dihydro-benzo[1,4]dioxine-6-carbonyl)-hydrazide] | 3.31 | 35 | 472 | 0.916 | 18.9 | 0.917 | 19 | 2550 | – | – | – | – | – | – |
| CCOC(=O)C(C)(C)N(NC(=O)c1cccc(OC)c1CC)C(=O)c1cc(C)cc(C)c1 [RG-115025, 2-[N-(3,5-dimethyl-benzoyl)-N′-(2-ethyl-3-methoxy-benzoyl)-hydrazino]-2-methyl-propionic acid ethyl ester] | 0.347 | 269 | 489 | 0.385 | 39.3 | 0.186 | 8 | 1700 | – | – | – | – | – | – |
| CCc1c(OC)cccc1C(=O)NN(C(=O)c1c(F)cccc1F)C(C)(C)C [RG-115033] | – | – | – | 0.575 | – | 0.643 | – | – | 24 | 388 | 16.2 | 386 | 12 | 1 |
| CCc1c(OC)cccc1C(=O)NN(C(=O)c1cc(C)cc(C)c1)C(C)(C)C(=O)O [RG-115044, 2-[N-(3,5-Dimethyl-benzoyl)-N′-(2-ethyl-3-methoxy-benzoyl)-hydrazino]-2-methyl-propionic acid] | > 50 | 1 | 7 | 1.08 | > 50 | 0.87 | – | 1 | – | – | – | – | – | – |
| CCc1c(C(=O)NN(C(=O)c2ccccc2)C(C)(C)C)ccc2c1OCOC2 [RG-115046] | – | – | – | – | – | – | – | – | – | 754 | 3.55 | – | 1076 | – |
| COc1cc(C(=O)N(NC(=O)c2ccc3c(c2C)CCCO3)C(C)(C)C)cc(OC)c1C [RG-115055] | – | – | – | 0.936 | – | 0.894 | – | – | 573 | 617 | 0.043 | 1356 | 1350 | 0.303 |
| CCc1c(C(=O)NN(C(=O)c2ccccc2OC)C(C)(C)C)ccc2c1OCOC2 [RG-115065] | – | – | – | – | – | – | – | – | – | 878 | 1.48 | – | 880 | – |
| CCc1c(C(=O)NN(C(=O)c2ccc(Cl)cc2OC)C(C)(C)C)ccc2c1OCO2 [RG-115085] | – | – | – | – | – | – | – | – | – | 627 | 0.195 | – | 236 | – |
| COc1cc(C(=O)N(NC(=O)c2ccc3c(c2C)OCCO3)C(C)(C)C#N)cc(OC)c1C [RG-115092, N-(5-methyl-1,4-benzodioxan-6-carbonyl)-N′-(2-cyano-2-propyl)-N′-(3,5-dimethoxy-4-methylbenzoyl)hydrazine] | 0.037 | 351 | 302 | 0.917 | 0.184 | 1.176 | 2320 | 2410 | – | – | – | – | – | – |
| COc1ccccc1C(=O)N(NC(=O)c1ccc2c(c1C)CCCO2)C(C)(C)C [RG-115102] | – | – | – | 0.858 | – | 0.546 | – | – | 88 | 865 | 0.139 | 1425 | 109 | 0.93 |
| Cc1c(C(=O)NN(C(=O)c2ccc(F)cc2)C(C)(C)C)ccc2c1CCCO2 [RG-115118] | – | – | – | 0.969 | – | 0.530 | – | – | 90 | 1160 | 0.234 | 979 | 769 | 0.689 |
| CCc1c(C(=O)NN(C(=O)c2cc(OC)c(C)c(OC)c2)C(C)(C)C)ccc2c1OCCO2 [RG-115130] | – | – | – | – | – | – | – | – | 412 | 930 | 0.036 | 987 | 511 | 0.512 |
| CCc1c(OC)cccc1C(=O)NN(C(=O)c1cc(C)cc(C)c1)C(C)(C)CO [RG-115143] | – | – | – | 0.844 | – | 0.651 | – | – | 111 | 1045 | 7.41 | 1 | 2032 | > 50 |
| CCc1c(OC)cccc1C(=O)NN(C(=O)c1cc(C)ccc1[N+](=O)[O-])C(C)(C)C [RG-115162] | – | – | – | 0.988 | – | 0.630 | – | – | 334 | 772 | 0.069 | 755 | 320 | 0.811 |
